Measurements as given in patent US20080312306A1, “POLYMORPHS, SOLVATES, AND HYDRATE OF 5-(4'-FLUORO-2'-OXO-1',2'-DIHYDROSPIRO[CYCLOPROPANE-1,3'-INDOL]-5'-YL)-1-METHYL-1H-PYRROLE-2-CARBONITRILE” (Wyeth, priority 2007, published 2008).

Legend:
Type in all cases: physicochemical
[1] = Solid-form stability (thermodynamic stability, slurrying in solvent, water, micronization, vacuum)
Source text: (§1) The inventors found several advantages of these new forms of 5-(4′-fluoro-2′-oxo-1′,2′-dihydrospiro[cyclopropane-1,3′-indol]-5′-yl)-1-methyl-1H-pyrrole-2-carbonitrile. […] In yet a further embodiment, samples of the hydrate of 5-(4′-fluoro-2′-oxo-1′,2′-dihydrospiro[cyclopropane-1,3′-indol]-5′-yl)-1-methyl-1H-pyrrole-2-carbonitrile were hygroscopic.
The hydrate of 5-(4′-fluoro-2′-oxo-1′,2′-dihydrospiro[cyclopropane-1,3′-indol]-5′-yl)-1-methyl-1H-pyrrole-2-carbonitrile is also stable under a variety of conditions. In one example, the hydrate is stable in water. In another example, the hydrate is stable under conditions of micronization. In a further example, the hydrate is stable under a vacuum for a period of at least about 48 hours.

[2] = Hygroscopicity / water content by dynamic vapor sorption (DVS)
Source text: as §1
The hydrate has a different structure of the crystal lattice of 5-(4′-fluoro-2′-oxo-1′,2′-dihydrospiro[cyclopropane-1,3′-indol]-5′-yl)-1-methyl-1H-pyrrole-2-carbonitrile from the Form I described in the art as determined by XRD and DSC. Specifically, the hydrate contains water in the crystal lattice. Specifically, as evidenced by dynamic vapor sorption (DVS), the hydrate contains about 2.5% to about 5% water. In one embodiment, the hydrate contains about 2.5% water at 0% relative humidity (RH).

[3] = Relative solubility of the crystallographic forms
Source text: as §1

| Compound | stability ([1]; in water) | period of stability under a vacuum ([1]; under a vacuum) | stability ([1]; under conditions of micronization) | hygroscopicity [2] | water content (DVS) ([2]; at 0% relative humidity (RH)) | water content (DVS) ([2]; at 100% RH) | thermodynamic stability ([1]; compared with polymorph Form I) | conversion to other polymorphs ([1]; if slurried in a solvent) | solubility ([3]; compared with other crystallographic forms) | solubility ([3]; compared with polymorph Form II) |
| --- | --- | --- | --- | --- | --- | --- | --- | --- | --- | --- |
| Cn1c(C#N)ccc1-c1ccc2c(c1F)C1(CC1)C(=O)N2 [hydrate, 5-(4′-fluoro-2′-oxo-1′,2′-dihydrospiro[cyclopropane-1,3′-indol]-5′-yl)-1-methyl-1H-pyrrole-2-carbonitrile] | stable | at least 48 hours | stable | hygroscopic | about 2.5% | about 4.75% |  |  |  |  |
| Cn1c(C#N)ccc1-c1ccc2c(c1F)C1(CC1)C(=O)N2 [polymorph Form II, 5-(4′-fluoro-2′-oxo-1′,2′-dihydrospiro[cyclopropane-1,3′-indol]-5′-yl)-1-methyl-1H-pyrrole-2-carbonitrile] |  |  |  | not hygroscopic |  |  | more thermodynamically stable | does not convert to other polymorphs |  |  |
| Cn1c(C#N)ccc1-c1ccc2c(c1F)C1(CC1)C(=O)N2 [polymorph Form III, 5-(4′-fluoro-2′-oxo-1′,2′-dihydrospiro[cyclopropane-1,3′-indol]-5′-yl)-1-methyl-1H-pyrrole-2-carbonitrile] |  |  |  |  |  |  |  |  | more soluble than other crystallographic forms | more soluble than polymorph Form II |
